Data from ChEMBL document CHEMBL1201862, “PubChem BioAssay data set” (2004).
Values belong to the compound of their own block, whether it stands above or below them. The source made the active and inactive calls.

Assays:
[1] = biological target: T1, Polyadenylate-binding protein 1 (Homo sapiens, UniProt P11940); assay: PABP1 MLLE–PAM2 interaction inhibitors, dose response, miRNA deadenylation inhibitor project, biochemical, fluorescence polarization, Cy5-PAM2 peptide, secondary (AID 602260); type: functional; details: read-out: IC50_Mean
[2] = biological target: T1, Polyadenylate-binding protein 1; assay: PABP1 MLLE–PAM2 binding inhibitor potency, dose response, biochemical, fluorescence polarization, FITC-PAM2 peptide (AID 602259); type: functional; details: read-out: IC50_Mean
[3] = system: Vero; assay: Vero cell cytotoxicity, cytotoxicity control for flavivirus capping enzyme inhibitors (AID 588742); type: functional; details: Chlorocebus sabaeus
[4] = biological target: T2, Microphthalmia-associated transcription factor (Homo sapiens, UniProt O75030); assay: TRPM1 promoter luciferase signal decrease, dose response, MITF inhibitor project, cell-based, SK-MEL-5, cherry-picked, set 3 (AID 493073); type: functional
T2 sequence (O75030 whole entry): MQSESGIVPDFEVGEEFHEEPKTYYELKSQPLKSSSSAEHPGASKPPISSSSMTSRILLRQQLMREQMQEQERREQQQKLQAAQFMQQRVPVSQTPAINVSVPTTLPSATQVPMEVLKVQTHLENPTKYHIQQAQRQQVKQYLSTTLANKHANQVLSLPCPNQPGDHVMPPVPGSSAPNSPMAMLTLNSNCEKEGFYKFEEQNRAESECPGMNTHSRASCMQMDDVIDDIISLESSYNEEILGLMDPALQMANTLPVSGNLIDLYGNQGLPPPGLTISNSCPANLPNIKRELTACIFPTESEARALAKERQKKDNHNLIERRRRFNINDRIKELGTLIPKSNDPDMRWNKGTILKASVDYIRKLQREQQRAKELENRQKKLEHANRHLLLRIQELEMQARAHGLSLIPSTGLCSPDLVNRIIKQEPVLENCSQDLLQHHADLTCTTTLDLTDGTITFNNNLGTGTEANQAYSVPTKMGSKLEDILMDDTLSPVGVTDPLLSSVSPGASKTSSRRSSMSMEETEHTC

[5] = biological target: Genome polyprotein (dengue virus type 2, UniProt P29990); assay: Dengue-2 NS5 methyltransferase inhibitors, primary screen, biochemical, confirmation dose response (AID 588689); type: functional
[6] = cells; type: functional, cell-based
[7] = cells; type: functional, cell-based; remark: listed apart in the source
[8] = system: HeLa; assay: HeLa cell cytotoxicity, dose response, cytotoxicity control for MITF activator project, CellTiter-Glo luminescence, cherry-pick samples (AID 540259); type: functional, cell-based; details: Homo sapiens
[9] = biological target: T3, Leucine aminopeptidase (Plasmodium falciparum 3D7, UniProt Q8IL11); assay: P. falciparum M17LAP inhibitors, primary screen, biochemical, fluorogenic H-Leu-NHMec substrate, 1536-well (AID 1619); type: functional
T3 sequence (Q8IL11 whole entry): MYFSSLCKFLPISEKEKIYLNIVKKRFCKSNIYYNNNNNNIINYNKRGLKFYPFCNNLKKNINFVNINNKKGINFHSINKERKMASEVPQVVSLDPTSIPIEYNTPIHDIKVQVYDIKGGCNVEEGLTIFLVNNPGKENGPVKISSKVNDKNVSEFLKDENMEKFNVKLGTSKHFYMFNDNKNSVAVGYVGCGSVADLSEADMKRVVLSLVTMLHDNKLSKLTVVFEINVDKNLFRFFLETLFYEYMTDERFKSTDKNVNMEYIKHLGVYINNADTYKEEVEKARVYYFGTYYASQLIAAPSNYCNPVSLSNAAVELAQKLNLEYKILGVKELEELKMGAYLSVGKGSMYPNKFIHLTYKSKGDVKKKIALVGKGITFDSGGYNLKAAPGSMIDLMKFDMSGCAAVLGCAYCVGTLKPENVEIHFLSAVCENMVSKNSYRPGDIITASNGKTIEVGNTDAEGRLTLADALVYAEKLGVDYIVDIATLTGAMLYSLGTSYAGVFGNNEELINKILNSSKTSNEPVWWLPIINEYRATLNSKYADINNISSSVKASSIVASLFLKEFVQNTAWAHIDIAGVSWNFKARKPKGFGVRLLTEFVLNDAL

[10] = biological target: T4, Coagulation factor XII (Homo sapiens, UniProt P00748); type: functional;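 further: activated factor XIIa alpha cleaving a fluorogenic AMC peptide substrate; inhibitor potency from loss of enzyme activity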
T4 sequence (P00748 whole entry): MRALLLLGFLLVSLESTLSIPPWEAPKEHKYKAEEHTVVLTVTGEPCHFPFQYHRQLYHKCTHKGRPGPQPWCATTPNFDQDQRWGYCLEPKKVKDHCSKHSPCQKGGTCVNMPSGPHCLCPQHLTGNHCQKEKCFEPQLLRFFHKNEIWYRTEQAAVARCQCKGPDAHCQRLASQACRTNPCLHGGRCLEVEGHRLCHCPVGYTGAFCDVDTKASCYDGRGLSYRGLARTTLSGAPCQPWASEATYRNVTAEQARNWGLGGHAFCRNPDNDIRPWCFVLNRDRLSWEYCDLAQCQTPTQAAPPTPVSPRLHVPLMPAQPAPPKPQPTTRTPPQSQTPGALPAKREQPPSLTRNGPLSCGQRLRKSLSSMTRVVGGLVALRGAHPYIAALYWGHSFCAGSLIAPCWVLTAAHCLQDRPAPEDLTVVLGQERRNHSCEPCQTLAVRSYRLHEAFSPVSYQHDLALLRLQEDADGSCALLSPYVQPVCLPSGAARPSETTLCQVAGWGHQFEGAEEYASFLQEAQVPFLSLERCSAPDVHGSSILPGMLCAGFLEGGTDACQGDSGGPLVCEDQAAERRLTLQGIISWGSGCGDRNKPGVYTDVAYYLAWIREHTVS

[11] = biological target: Induced myeloid leukemia cell differentiation protein Mcl-1 (Homo sapiens, UniProt Q07820); type: functional
[12] = C. albicans growth with fluconazole, confirmation, fluorescence, retest (AID 2467); type: functional, cell-based
[13] = NIH-3T3 fibroblast cytotoxicity, dose response, cytotoxicity control, cell-based, fluorescence, Alamar Blue, secondary assay (AID 2327); type: functional;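 further: NIH-3T3 mouse fibroblasts cultured with fluconazole at 8 µg/mL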
[14] = inhibitors of intracellular T. cruzi replication, confirmation, NIH3T3 host cells, beta-gal luminescence (AID 2044); type: functional, cell-based;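 further: intracellular parasites grown in NIH/3T3 mouse fibroblasts as host cells; luminescent beta-galactosidase reporter signal from transgenic T. cruzi replicating inside host cells; inhibitors lower the luminescence signal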
[15] = cytotoxicity toward NIH3T3 fibroblasts, dose response, counter-screen, cell-based, ATP luminescence, mouse fibroblasts (AID 2010); type: functional;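 further: cells exposed to compound for about 90 hours before reading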
[16] = biological target: Prothrombin (Homo sapiens, UniProt P00734); assay: Thrombin 1536 HTS Dose Response Confirmation. [Related pubchem assays: 1046 (Thrombin 1536 HTS; hits were confirmed in this assay)]; type: functional
[17] = biological target: Protein Wnt-3a (Mus musculus, UniProt P27467); assay: Wnt3a-driven reporter signaling inhibition, dose response, selectivity assay for Gli-SUFU antagonist project, Wnt-LIGHT cells, luminescence (AID 651570); type: functional; details: read-out: IC50_Mean;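 further: Wnt-LIGHT reporter cells stimulated with conditioned medium from Wnt3a-producing cells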
[18] = control 3'UTR Renilla luciferase suppression, dose response, counter-screen for Shn3 inhibitor project, cell-based, Clone20-Shn3RL, cherry-picked (AID 624133); type: functional
[19] = HepG2 cell cytotoxicity, dose response, cytotoxicity control for Shn3 inhibitor project, CellTiter-Glo, cherry-picked (AID 624134); type: functional, cell-based
[20] = Shn3 3'UTR reporter inhibitors, dose response, cell-based, Clone20 osteoblasts, firefly luciferase, cherry-picked (AID 624132); type: functional;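 further: firefly luciferase luminescence from reporter carrying the Shn3 3'UTR in osteoblasts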
[21] = biological target: DNA dC->dU-editing enzyme APOBEC-3G (Homo sapiens, UniProt Q9HC16); assay: Dose Response confirmation of small molecule APOBEC3G DNA Deaminase Inhibitors via a fluorescence-based single-stranded DNA deaminase assay. [Related pubchem assays (depositor defined):AID493012, AID493028]; type: functional
[22] = intracellular Trypanosoma cruzi inhibitors in host cells – cell-based, plate reader, cherry-pick samples, set 3, dose response (AID 651818); type: functional;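 further: compounds incubated with infected cells for about four days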
[23] = growth suppression of PTEN-null colon cells, dose response, cell-based, HCT116 PTEN knockout (AID 1047); type: functional;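 further: HCT116 colon tumor cells with PTEN knocked out; cells exposed to compound for 60 hours before readout; potency for loss of cell viability measured by luminescence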
[24] = growth suppression of beta-catenin-knockout colon cells, dose response, cell-based, HCT116, human colon tumor (AID 1045); type: functional;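 further: HCT116 colon tumor cells with beta catenin knocked out; cells exposed to compound for 60 hours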

T1 sequence (P11940 whole entry): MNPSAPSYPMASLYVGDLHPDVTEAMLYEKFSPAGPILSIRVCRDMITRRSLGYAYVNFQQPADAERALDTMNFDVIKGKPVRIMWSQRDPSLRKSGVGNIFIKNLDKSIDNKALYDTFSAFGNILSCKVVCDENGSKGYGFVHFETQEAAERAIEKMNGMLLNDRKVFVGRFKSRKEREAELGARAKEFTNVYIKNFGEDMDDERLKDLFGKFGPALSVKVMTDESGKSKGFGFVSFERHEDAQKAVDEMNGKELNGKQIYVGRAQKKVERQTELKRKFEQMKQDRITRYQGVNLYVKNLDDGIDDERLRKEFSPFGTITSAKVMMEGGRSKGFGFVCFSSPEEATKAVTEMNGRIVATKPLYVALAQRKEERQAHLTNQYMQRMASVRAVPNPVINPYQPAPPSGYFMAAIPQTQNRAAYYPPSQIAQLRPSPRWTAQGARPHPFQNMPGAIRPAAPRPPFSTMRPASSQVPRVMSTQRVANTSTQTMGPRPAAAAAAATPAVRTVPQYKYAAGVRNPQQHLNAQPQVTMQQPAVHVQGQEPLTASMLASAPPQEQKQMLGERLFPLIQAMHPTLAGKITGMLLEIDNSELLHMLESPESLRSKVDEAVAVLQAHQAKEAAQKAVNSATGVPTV
Sequence of Induced myeloid leukemia cell differentiation protein Mcl-1 (Q07820 whole entry): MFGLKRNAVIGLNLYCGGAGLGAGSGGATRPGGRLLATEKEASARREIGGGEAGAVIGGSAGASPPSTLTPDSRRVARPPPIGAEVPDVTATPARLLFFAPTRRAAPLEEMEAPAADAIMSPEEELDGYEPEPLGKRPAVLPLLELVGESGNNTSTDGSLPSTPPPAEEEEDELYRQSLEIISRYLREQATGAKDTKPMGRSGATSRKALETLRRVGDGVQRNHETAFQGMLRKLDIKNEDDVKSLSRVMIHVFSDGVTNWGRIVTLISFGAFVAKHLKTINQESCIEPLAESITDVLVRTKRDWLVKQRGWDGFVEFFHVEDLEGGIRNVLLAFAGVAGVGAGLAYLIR
Sequence of Genome polyprotein (P29990 2492-3391 limits assumed): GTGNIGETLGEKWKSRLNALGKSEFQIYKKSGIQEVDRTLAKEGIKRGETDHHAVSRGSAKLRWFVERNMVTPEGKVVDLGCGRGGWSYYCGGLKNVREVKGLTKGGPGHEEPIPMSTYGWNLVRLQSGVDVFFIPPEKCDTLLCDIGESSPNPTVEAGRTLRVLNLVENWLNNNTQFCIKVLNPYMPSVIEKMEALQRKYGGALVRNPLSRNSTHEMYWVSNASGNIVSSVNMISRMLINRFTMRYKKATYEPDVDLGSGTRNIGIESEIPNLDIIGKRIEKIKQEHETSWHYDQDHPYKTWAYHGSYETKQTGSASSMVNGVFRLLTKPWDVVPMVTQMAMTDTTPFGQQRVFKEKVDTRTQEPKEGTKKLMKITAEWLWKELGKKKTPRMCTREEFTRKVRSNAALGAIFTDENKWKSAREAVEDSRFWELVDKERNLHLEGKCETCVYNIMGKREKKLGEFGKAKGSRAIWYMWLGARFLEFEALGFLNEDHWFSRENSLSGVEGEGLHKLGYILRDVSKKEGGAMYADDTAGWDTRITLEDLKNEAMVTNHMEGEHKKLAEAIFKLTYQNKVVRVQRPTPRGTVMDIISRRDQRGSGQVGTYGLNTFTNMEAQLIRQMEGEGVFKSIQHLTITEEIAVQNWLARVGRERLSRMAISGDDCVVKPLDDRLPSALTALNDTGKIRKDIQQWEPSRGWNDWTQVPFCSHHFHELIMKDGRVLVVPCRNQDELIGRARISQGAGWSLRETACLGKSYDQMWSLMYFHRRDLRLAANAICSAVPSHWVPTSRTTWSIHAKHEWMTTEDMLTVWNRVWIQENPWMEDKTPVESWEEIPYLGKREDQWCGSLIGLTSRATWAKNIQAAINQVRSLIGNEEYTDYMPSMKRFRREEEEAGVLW
Sequence of DNA dC->dU-editing enzyme APOBEC-3G (Q9HC16 whole entry): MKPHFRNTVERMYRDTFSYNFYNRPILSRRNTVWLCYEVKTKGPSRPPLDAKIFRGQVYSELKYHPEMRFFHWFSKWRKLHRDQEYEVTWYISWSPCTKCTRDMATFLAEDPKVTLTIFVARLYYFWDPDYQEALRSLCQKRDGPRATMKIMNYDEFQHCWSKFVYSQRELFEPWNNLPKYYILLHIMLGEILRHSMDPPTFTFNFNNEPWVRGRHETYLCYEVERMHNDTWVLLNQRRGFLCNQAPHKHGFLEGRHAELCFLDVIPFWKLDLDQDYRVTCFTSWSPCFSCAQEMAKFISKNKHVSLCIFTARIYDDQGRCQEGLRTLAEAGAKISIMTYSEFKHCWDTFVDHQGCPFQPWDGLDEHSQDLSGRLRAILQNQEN
Sequence of Protein Wnt-3a (P27467 whole entry): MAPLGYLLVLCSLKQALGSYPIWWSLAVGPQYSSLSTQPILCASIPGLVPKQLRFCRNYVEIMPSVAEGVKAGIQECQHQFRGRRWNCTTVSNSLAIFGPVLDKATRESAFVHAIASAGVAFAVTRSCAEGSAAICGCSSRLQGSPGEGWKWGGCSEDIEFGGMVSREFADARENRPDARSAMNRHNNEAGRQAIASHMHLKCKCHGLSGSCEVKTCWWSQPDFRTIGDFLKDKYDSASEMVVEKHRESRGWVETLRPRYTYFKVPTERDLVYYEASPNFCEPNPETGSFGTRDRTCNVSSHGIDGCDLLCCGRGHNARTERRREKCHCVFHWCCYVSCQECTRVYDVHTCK

SMILES: CC1CCCN(c2c([N+](=O)[O-])c(=O)oc3ccccc23)C1 (stereo not given)
IC50 [6]: > 29.9 µM (inactive)
EC50 [7]: > 29.9 µM (inactive)

SMILES: O=C(NC1CCCCCC1)c1c(O)nc2ccccc2c1O
AC50 [8]: 62.7 µM (active)

SMILES: Cc1c(C(=O)Nc2ccccc2F)cnn1-c1ccccc1
AC50 [8]: 80.9 µM (active)

SMILES: O=C1N=C(Nc2ccccc2Cl)S/C1=C\c1cccc([N+](=O)[O-])c1O
EC50 [12]: 7.16 µM (active)
CC50 [3]: > 40 µM (active)
EC50 [13]: > 150 µM (inactive)

SMILES: O=C(Nc1ccc(Cl)c(Cl)c1)OCc1cccnc1
EC50 [14]: 2.5 µM (active)
AC50 [8]: 39.5 µM (active)
EC50 [15]: > 30 µM (not active)

SMILES: Cc1ccc(NC(=O)c2ccc3ccccc3n2)cc1S(=O)(=O)N(C)C
AC50 [8]: 35.4 µM (active)

SMILES: CCN(CC)S(=O)(=O)c1ccc(S(=O)(=O)N2CCCC(C(=O)NC3CC3)C2)cc1 (stereo not given)
IC50 [17]: 444 nM (active)
AC50 [18]: 9.46 µM (active)
AC50 [19]: 52 µM (active)
AC50 [20]: 2.9 µM (active)

SMILES: CCOC(=O)c1sc(=S)n(C)c1NC(=O)c1ccc(OC)cc1
IC50 [21]: 41.1 µM (active)

SMILES: c1ccc2c(c1)OCC(c1nnc3sc(-c4ccc5c(c4)OCO5)nn13)O2 (stereo not given)
IC50 [21]: 52.8 µM (active)

SMILES: C[C@@H]1CN([C@@H](C)CO)C(=O)c2cccc(NC(=O)Nc3ccc(C(F)(F)F)cc3)c2O[C@@H]1CN(C)Cc1ccc(C(F)(F)F)cc1
AC50 [22]: 3.89 µM (active)

SMILES: Cc1noc(C)c1S(=O)(=O)Nc1ccc2c(c1)CC(=O)N([C@@H](C)CO)C[C@H](C)[C@@H](CN(C)Cc1ccc(-c3ccccc3)cc1)O2
AC50 [22]: 4.33 µM (active)

SMILES: COc1ccc(S(=O)(=O)Nc2ccc3c(c2)CC(=O)N([C@@H](C)CO)C[C@@H](C)[C@@H](CN(C)Cc2ccc(C(=O)Nc4ccccc4N)cc2)O3)cc1
AC50 [22]: 1.62 µM (active)

SMILES: Cc1ccc(S(=O)(=O)Nc2cccc3c2O[C@@H](CN(C)Cc2ccc(-c4ccccc4)cc2)[C@@H](C)CN([C@@H](C)CO)C3=O)cc1
AC50 [22]: 3.36 µM (active)

SMILES: Cc1ccc(-c2nn(-c3ccccc3)cc2/C=C2\SC(=S)N(CC(=O)O)C2=O)cc1
IC50 [11]: 4.14 µM (active)
IC50 [5]: 36.5 µM (active)

SMILES: Oc1ccc(/N=C/C=C/c2ccc(Br)cc2)cc1-c1nc2ccccc2s1
EC50 [23]: 28.8 µM (active)
EC50 [24]: 22.4 µM (active)

Further lines, with some results ahead:

IC50 [1]: > 66 µM (inactive)
IC50 [2]: > 66 µM (inactive)
SMILES: N#Cc1c(NC(=O)C2CC(c3ccccc3O)=NO2)sc2c1CCC2 (stereo not given)

AC50 [4]: 8.46 µM (active)
IC50 [5]: 9.85 µM (active)
SMILES: Cc1ccc2nc3cc([N+](=O)[O-])cc([N+](=O)[O-])c3cc2c1
CC50 [3]: 6.28 µM (active)

IC50 [9]: 11.6 µM (active)
SMILES: O=C(NCc1ccco1)C(=O)c1cn(CC(=O)N2CCCCCC2)c2ccccc12

IC50 [10]: > 50 µM (inactive)
SMILES: CCOc1ccc(-n2c(SCC(=O)Nc3cc(C)on3)nnc2-c2c[nH]c3ccccc23)cc1

IC50 [11]: 4.96 µM (active)
SMILES: Cc1cc(O)n2nc(-c3ccsc3-n3c(C)ccc3C)cc2n1

IC50 [1]: > 66 µM (inactive)
IC50 [2]: > 66 µM (inactive)
SMILES: O=C(CSc1nc2c(c(=O)n1-c1ccc(F)cc1)SCC2)NCc1ccco1

IC50 [10]: > 50 µM (inactive)
SMILES: CCOc1ccc(N(CC(=O)Nc2cccc(F)c2)S(=O)(=O)c2c(C)noc2C)cc1

IC50 [16]: > 50 µM (not active)
SMILES: Cc1ccccc1NC(=O)c1ccc(NC(=O)C2CC(=O)OC23CCCCC3)cc1 (stereo not given)

IC50 [16]: > 50 µM (not active)
SMILES: CCOC(=O)N1CCN(C(=O)c2oc3ccc(S(=O)(=O)N4CCOCC4)cc3c2C)CC1

IC50 [1]: > 66 µM (inactive)
IC50 [2]: > 66 µM (inactive)
SMILES: COc1ccc(NC(=S)NC(=O)c2ccccc2)cn1

IC50 [10]: > 50 µM (inactive)
SMILES: CCOCCn1c(-c2ccc(OC)cc2)nc2ccccc21

IC50 [16]: > 50 µM (not active)
SMILES: CCCN1CCC(N2CCCC(C(=O)O)C2)CC1 (stereo not given)

IC50 [10]: > 50 µM (inconclusive)
SMILES: COc1ccc(/C=C(\C#N)c2n[nH]c(Cn3cncn3)n2)cc1

IC50 [9]: 80.6 µM (active)
SMILES: CC1=NNC(=O)C1CCC(=O)N/N=C(/C)c1ccc([N+](=O)[O-])cc1 (stereo not given)

IC50 [16]: > 50 µM (not active)
SMILES: NC(=O)N/N=C/C=C/c1ccccc1 [PHENYLETHENYLSEMICARBAZONE]
